{"source": "patent US20230041069A1", "about": "“ELECTROLYTE FOR ELECTROCHEMICAL GAS SENSOR AND ELECTROCHEMICAL GAS SENSOR INCLUDING THE SAME” (Samsung Electronics Co., Ltd., priority 2021, published 2023)", "origin": "cited, not measured here", "data": [{"smiles": "CCn1cc[n+](C)c1.N#C[N-]C#N", "note": "[compound 6, 1-Ethyl-3-methylimidazolium dicyanamide]", "values": [{"measurement": "pKa of an anion's conjugate acid", "result": 5}]}]}
